Experimental data as given in patent US20260272926A1, “HIV-1P ROTEASE INHIBITORS AND USES THEREOF” (Purdue Research Foundation, priority 2023, published 2026).
pIC50, pKi: −log10 of the molar value. Values joined by “and” are separate entries in the source; they are usually repeats but may differ in a detail not shown here. Identical values can stand only once. Like-named read-outs stand apart in the source and are kept apart here.

What was measured:
HIV-1 protease = target: T1, HIV-1 protease (Human immunodeficiency virus type 1 group M subtype B, UniProt P04585); assay: HIV-1 protease enzyme-inhibitory assay (Toth and Marshall); type: biochemical; conditions: for Ki (nM) / pKi: HIV-1 protease inhibitory activity
T1 construct: catalytically active dimeric HIV-1 protease
Protocol: (§1) The ability of the nilotinib subunit, pyridinyl-pyrimidinyl amino benzamides to serve as P2 ligands in the S2 subsite of HIV-1 protease was investigated. The HIV-1 protease inhibitory activity of these compounds was evaluated in an enzyme-inhibitory assay reported by Toth and Marshall. […] We also determined the antiviral activity of these inhibitors in MT-2 human-T-lymphoid cells exposed to HIVLAI. […] We then examined a pyridyl thiazole heterocycle in place of the pyridyl pyrimidinyl scaffold in compounds 5a-d.

HIVLAI = assay: antiviral activity in MT-2 human-T-lymphoid cells exposed to HIVLAI; type: cell-based, HIV-1
Protocol: as §1

[1] = antiviral, MT-2 cells exposed to HIVLAI, Table 1 and text
[2] = Human immunodeficiency virus 1, MT2, antiviral, MT-2 cells exposed to HIVLAI, Table 1 and text, read-out: IC50
[3] = Human immunodeficiency virus 1, MT2, antiviral, MT-2 cells exposed to HIVLAI, Table 2, read-out: IC50

For `Cc1ccc(C(=O)N[C@@H](Cc2ccccc2)[C@H](O)CN(CC(C)C)S(=O)(=O)c2ccc3nc(NC4CC4)sc3c2)cc1Nc1cc(-c2cccnc2)ncn1`, the “Ki (nM)” value (HIV-1 protease) was “Low nM” and the “IC50 (nM)” value (HIVLAI; [1]) was “Low nM”.

`COc1ccc(S(=O)(=O)N(CC(C)C)C[C@@H](O)[C@H](Cc2ccccc2)NC(=O)c2cccc(Nc3nc(-c4cccnc4)cs3)c2)cc1` was tested, and the “Ki (nM)” value (HIV-1 protease) was “Low nM” and the “IC50 (nM)” value (HIVLAI; [1]) was “Low nM”.

For `CC(C)CN(C[C@@H](O)[C@H](Cc1ccccc1)NC(=O)c1cccc(Nc2nc(-c3cccnc3)cs2)c1)S(=O)(=O)c1ccc2nc(NC3CC3)sc2c1`, the “Ki (nM)” value (HIV-1 protease) was “Low nM” and the “IC50 (nM)” value (HIVLAI; [1]) was “Low nM”.

In the case of `COc1ccc(S(=O)(=O)N(CC(C)C)C[C@@H](O)[C@H](Cc2ccccc2)NC(=O)c2ccc(C)c(Nc3nccc(-c4cccnc4)n3)c2)cc1` [Compound 5a, N-((2S,3R)-3-hydroxy-4-((N-isobutyl-4-methoxyphenyl)sulfonamido)-1-phenylbutan-2-yl)-4-methyl-3-((4-(pyridin-3-yl)pyrimidin-2-yl)amino)benzamide], the pKi (HIV-1 protease) was 10.55, the “enzyme inhibitory Ki” value (HIV-1 protease; text b193) was 28 PM and the pIC50 (HIVLAI; [2]) was 6.81.

`Cc1ccc(C(=O)N[C@@H](Cc2ccccc2)[C@H](O)CN(CC(C)C)S(=O)(=O)c2ccc(N)cc2)cc1Nc1nccc(-c2cccnc2)n1` [Compound 5b, N-((2S,3R)-4-((4-amino-N-isobutylphenyl)sulfonamido)-3-hydroxy-1-phenylbutan-2-yl)-4-methyl-3-((4-(pyridin-3-yl)pyrimidin-2-yl)amino)benzamide] showed a pKi (HIV-1 protease) of 9.77 and a pIC50 (HIVLAI; antiviral, MT-2 cells exposed to HIVLAI, Table 1 and text, read-out: IC50) of 7.18.

In the case of `COc1ccc(S(=O)(=O)N(CC(C)C)C[C@@H](O)[C@H](Cc2cc(F)cc(F)c2)NC(=O)c2ccc(C)c(Nc3nccc(-c4cccnc4)n3)c2)cc1` [Compound 5c, N-((2S,3R)-1-(3,5-difluorophenyl)-3-hydroxy-4-((N-isobutyl-4-methoxyphenyl)sulfonamido)butan-2-yl)-4-methyl-3-((4-(pyridin-3-yl)pyrimidin-2-yl)amino)benzamide], the pKi (HIV-1 protease) was 9.24 and the pIC50 (HIVLAI; [2]) was 6.91.

For `Cc1ccc(C(=O)N[C@@H](Cc2cc(F)cc(F)c2)[C@H](O)CN(CC(C)C)S(=O)(=O)c2ccc(N)cc2)cc1Nc1nccc(-c2cccnc2)n1` [Compound 5d, N-((2S,3R)-4-((4-amino-N-isobutylphenyl)sulfonamido)-1-(3,5-difluorophenyl)-3-hydroxybutan-2-yl)-4-methyl-3-((4-(pyridin-3-yl)pyrimidin-2-yl)amino)benzamide], the pKi (HIV-1 protease) was 8.72, the pIC50 (HIVLAI; [2]) was 6.67 and the “reduction in antiviral activity” value (HIVLAI; over compound 5c) was 3 fold.

`COc1ccc(S(=O)(=O)N(CC(C)C)C[C@@H](O)[C@H](Cc2ccccc2)NC(=O)c2ccc(C)c(Nc3nc(-c4cccnc4)cs3)c2)cc1` [Compound 5e, N-((2S,3R)-3-hydroxy-4-((N-isobutyl-4-methoxyphenyl)sulfonamido)-1-phenylbutan-2-yl)-4-methyl-3-((4-(pyridin-3-yl)thiazol-2-yl)amino)benzamide] was tested, and the pKi (HIV-1 protease) was 7.42 and the pIC50 (HIVLAI; [2]) was 6.41.

In the case of `COc1ccc(S(=O)(=O)N(CC(C)C)C[C@@H](O)[C@H](Cc2ccccc2)NC(=O)c2cccc(Nc3nc(-c4cccnc4)cs3)c2C)cc1` [Compound 5f, N-((2S,3R)-3-hydroxy-4-((N-isobutyl-4-methoxyphenyl)sulfonamido)-1-phenylbutan-2-yl)-2-methyl-3-((4-(pyridin-3-yl)thiazol-2-yl)amino)benzamide], the pKi (HIV-1 protease) was 7.71, the pIC50 (HIVLAI; [2]) was < 6.00 and the “antiviral activity (in words)” value (HIVLAI; MT-2 cells exposed to HIVLAI) was “did not exhibit any appreciable antiviral activity”.

In the case of `COc1ccc(S(=O)(=O)N(CC(C)C)C[C@@H](O)[C@H](Cc2ccccc2)NC(=O)c2cc(C)cc(Nc3nc(-c4cccnc4)cs3)c2)cc1` [Compound 5g, N-((2S,3R)-3-hydroxy-4-((N-isobutyl-4-methoxyphenyl)sulfonamido)-1-phenylbutan-2-yl)-3-methyl-5-((4-(pyridin-3-yl)thiazol-2-yl)amino)benzamide], the pKi (HIV-1 protease) was 6.73 and the pIC50 (HIVLAI; [2]) was < 6.00.

Molecule `COc1ccc(S(=O)(=O)N(CC(C)C)C[C@@H](O)[C@H](Cc2ccccc2)NC(=O)c2cc(Nc3nc(-c4cccnc4)cs3)ccc2C)cc1` [Compound 5h, N-((2S,3R)-3-hydroxy-4-((N-isobutyl-4-methoxyphenyl)sulfonamido)-1-phenylbutan-2-yl)-2-methyl-5-((4-(pyridin-3-yl)thiazol-2-yl)amino)benzamide] has a pKi (HIV-1 protease) of 8.06 and a pIC50 (HIVLAI; [2]) of 6.24.

Work on `COc1ccc(S(=O)(=O)N(CC(C)C)C[C@@H](O)[C@H](Cc2ccccc2)NC(=O)c2ccc(C)c(Nc3nc(-c4cccnc4)cs3)c2C)cc1` [Compound 5i, N-((2S,3R)-3-hydroxy-4-((N-isobutyl-4-methoxyphenyl)sulfonamido)-1-phenylbutan-2-yl)-2,4-dimethyl-3-((4-(pyridin-3-yl)thiazol-2-yl)amino)benzamide] yielded a pIC50 (HIVLAI; [2]) of 6.29.

For `COc1ccc(S(=O)(=O)N(CC(C)C)C[C@@H](O)[C@H](Cc2ccccc2)NC(=O)c2ccc(C)c(Nc3nc(C)cs3)c2)cc1` [Compound 5j, N-((2S,3R)-3-hydroxy-4-((N-isobutyl-4-methoxyphenyl)sulfonamido)-1-phenylbutan-2-yl)-4-methyl-3-((4-methylthiazol-2-yl)amino)benzamide], the pKi (HIV-1 protease) was 7.59 and 7.58, the pIC50 (HIVLAI; Human immunodeficiency virus 1, MT2) was < 6.00 and the “antiviral activity (in words)” value (HIVLAI; MT-2 cells exposed to HIVLAI) was “did not show any appreciable antiviral activity”.

`COc1ccc(S(=O)(=O)N(CC(C)C)C[C@@H](O)[C@H](Cc2ccccc2)NC(=O)c2cccc(Nc3nc(C)cs3)c2C)cc1` [Compound 5k, N-((2S,3R)-3-hydroxy-4-((N-isobutyl-4-methoxyphenyl)sulfonamido)-1-phenylbutan-2-yl)-2-methyl-3-((4-methylthiazol-2-yl)amino)benzamide] was tested, and the pKi (HIV-1 protease) was 7.14 and the pIC50 (HIVLAI; [3]) was < 6.00.

`COc1ccc(S(=O)(=O)N(CC(C)C)C[C@@H](O)[C@H](Cc2ccccc2)NC(=O)c2cc(C)cc(Nc3nc(C)cs3)c2)cc1` [Compound 5l, N-((2S,3R)-3-hydroxy-4-((N-isobutyl-4-methoxyphenyl)sulfonamido)-1-phenylbutan-2-yl)-3-methyl-5-((4-methylthiazol-2-yl)amino)benzamide] was tested, and the pKi (HIV-1 protease) was 7.10 and the pIC50 (HIVLAI; [3]) was < 6.00.

For `COc1ccc(S(=O)(=O)N(CC(C)C)C[C@@H](O)[C@H](Cc2ccccc2)NC(=O)c2cc(Nc3nc(C)cs3)ccc2C)cc1` [Compound 5m, N-((2S,3R)-3-hydroxy-4-((N-isobutyl-4-methoxyphenyl)sulfonamido)-1-phenylbutan-2-yl)-2-methyl-5-((4-methylthiazol-2-yl)amino)benzamide], the pKi (HIV-1 protease) was 7.12 and the pIC50 (HIVLAI; [3]) was < 6.00.

In the case of `COc1ccc(S(=O)(=O)N(CC(C)C)C[C@@H](O)[C@H](Cc2ccccc2)NC(=O)c2ccc(C)c(Nc3nc(C(F)(F)F)cs3)c2)cc1` [Compound 5n, N-((2S,3R)-3-hydroxy-4-((N-isobutyl-4-methoxyphenyl)sulfonamido)-1-phenylbutan-2-yl)-4-methyl-3-((4-(trifluoromethyl)thiazol-2-yl)amino)benzamide], the pKi (HIV-1 protease) was 7.22 and the pIC50 (HIVLAI; [3]) was < 6.00.

For `COc1ccc(S(=O)(=O)N(CC(C)C)C[C@@H](O)[C@H](Cc2ccccc2)NC(=O)c2cccc(Nc3nc(C(F)(F)F)cs3)c2C)cc1` [Compound 5o, N-((2S,3R)-3-hydroxy-4-((N-isobutyl-4-methoxyphenyl)sulfonamido)-1-phenylbutan-2-yl)-2-methyl-3-((4-(trifluoromethyl)thiazol-2-yl)amino)benzamide], the pKi (HIV-1 protease) was 7.14 and the pIC50 (HIVLAI; [3]) was < 6.00.

`COCc1csc(Nc2ccc(C)c(C(=O)N[C@@H](Cc3ccccc3)[C@H](O)CN(CC(C)C)S(=O)(=O)c3ccc(OC)cc3)c2)n1` [Compound 5p, N-((2S,3R)-3-hydroxy-4-((N-isobutyl-4-methoxyphenyl)sulfonamido)-1-phenylbutan-2-yl)-5-((4-(methoxymethyl)thiazol-2-yl)amino)-2-methylbenzamide] gave a pKi (HIV-1 protease) of 7.74, a pIC50 (HIVLAI; [2]) of 6.20 and a pIC50 (HIVLAI; [3]) of 6.20.
